Like-named read-outs stand apart in the source and are kept apart here.
Tested on: HBsAg
Assay: HBsAg inhibition in HepG2.2.15 culture supernatant (ELISA)
Assay type: cell-based, HBV
Details: read-out: Activity in HBsAg inhibition, EC50
Method: Test method: HepG2.2.15 cell line was seeded into 96-well plates at 1.5×10^4 cells/well. On the following day, the cells were treated with a three-fold serial dilution series of the compounds at eight concentration points, and 2 duplicate wells were determined in parallel. The final DMSO concentration in the culture solution was 0.5%. On the fifth day, the culture solution was replaced with fresh solution containing the compounds. On the eighth day, the culture supernatant was collected and the HBsAg in the culture supernatant was detected by ELISA. The percent inhibition was calculated with respect to the blank control.

[1] = Hepatitis B virus, HepG2.2.15, 192 h
[2] = HepG2.2.15 cells, supernatant on day 8, ELISA

Row | Compound | EC50 [1] [nM] | EC50 [2] [nM]
1 | COCCCOc1cc2c(cc1OC)-c1cc(=O)c(C(=O)O)cn1C(C(C)C)C2 (racemic) [A-rac, reference compound] | 8.21 | 
2 | COc1cc2c(cc1O[C@H]1CCOC1)CC(C(C)C)n1cc(C(=O)O)c(=O)cc1-2 (mixture of isomers) [Compound I-1-rac, 6-isopropyl-10-methoxy-2-oxo-9-(((S)-tetrahydrofuran-3-yl)oxy)-6,7-dihydro-2H-pyrido[2,1-α]isoquinoline-3-carboxylic acid] | 5.74 | 
3 | COc1cc2c(cc1O[C@@H]1CCOC1)CC(C(C)C)n1cc(C(=O)O)c(=O)cc1-2 (mixture of isomers) [Compound I-2-rac, 6-isopropyl-10-methoxy-2-oxo-9-(((R)-tetrahydrofuran-3-yl)oxy)-6,7-dihydro-2H-pyrido[2,1-α]isoquinoline-3-carboxylic acid] | 3.26 | 
4 | COc1cc2c(cc1OC1CCOCC1)CC(C(C)C)n1cc(C(=O)O)c(=O)cc1-2 (racemic) [Compound I-3-rac, 6-isopropyl-10-methoxy-2-oxo-9-((tetrahydro-2H-pyran-4-yl)oxy)-6,7-dihydro-2H-pyrido[2,1-α]isoquinoline-3-carboxylic acid] |  | 7.04
5 | COc1cc2c(cc1OC1COC1)CC(C(C)C)n1cc(C(=O)O)c(=O)cc1-2 (racemic) [Compound I-4-rac, 6-isopropyl-10-methoxy-9-(oxetan-3-yloxy)-2-oxo-6,7-dihydro-2H-pyrido[2,1-α]isoquinoline-3-carboxylic acid] | 3.62 | 
6 | COc1cc2c(cc1O[C@H]1C[C@H](OC)C1)CC(C(C)C)n1cc(C(=O)O)c(=O)cc1-2 (mixture of isomers) [Compound I-5-rac, 6-isopropyl-10-methoxy-9-((1R,3S)-3-methoxycyclobutoxy)-2-oxo-6,7-dihydro-2H-pyrido[2,1-α]isoquinoline-3-carboxylic acid] | 3.56 | 
7 | COCC1(COc2cc3c(cc2OC)-c2cc(=O)c(C(=O)O)cn2C(C(C)C)C3)CC1 (racemic) [Compound I-6-rac, 6-isopropyl-10-methoxy-9-((1-(methoxymethyl)cyclopropyl)methoxy)-2-oxo-6,7-dihydro-2H-pyrido[2,1-α]isoquinoline-3-carboxylic acid] | 4.12 | 
8 | COCC1(COc2cc3c(cc2OC)-c2cc(=O)c(C(=O)O)cn2C(C(C)C)C3)COC1 (racemic) [Compound I-7-rac, 6-isopropyl-10-methoxy-9-((3-(methoxymethyl)oxetan-3-yl)methoxy)-2-oxo-6,7-dihydro-2H-pyrido[2,1-α]isoquinoline-3-carboxylic acid] | 4.68 | 
9 | COc1cc2c(cc1OCC1CC(OC)C1)CC(C(C)C)n1cc(C(=O)O)c(=O)cc1-2 (racemic) [Compound I-8-rac, 6-isopropyl-10-methoxy-9-((3-methoxycyclobutyl)methoxy)-2-oxo-6,7-dihydro-2H-pyrido[2,1-α]isoquinoline-3-carboxylic acid] | 5.59 | 
10 | COc1cc2c(cc1OCCCC(C)=O)CC(C(C)C)n1cc(C(=O)O)c(=O)cc1-2 (racemic) [Compound I-9-rac, 6-isopropyl-10-methoxy-2-oxo-9-((4-oxopentyl)oxy)-6,7-dihydro-2H-pyrido[2,1-α]isoquinoline-3-carboxylic acid] | 3.71 | 
11 | COc1cc2c(cc1OC1CCCC1)CC(C(C)C)n1cc(C(=O)O)c(=O)cc1-2 (racemic) [Compound I-10-rac, 9-(cyclopentyloxy)-6-isopropyl-10-methoxy-2-oxo-6,7-dihydro-2H-pyrido[2,1-α]isoquinoline-3-carboxylic acid] | 3.78 | 
12 | COc1cc2c(cc1C#CC1CC1)CC(C(C)C)n1cc(C(=O)O)c(=O)cc1-2 (racemic) [Compound I-11-rac, 9-(cyclopropylethynyl)-6-isopropyl-10-methoxy-2-oxo-6,7-dihydro-2H-pyrido[2,1-α]isoquinoline-3-carboxylic acid] | 2.61 | 
13 | CC(C)C1Cc2cc(O[C@@H]3CCOC3)c(Cl)cc2-c2cc(=O)c(C(=O)O)cn21 (mixture of isomers) [Compound I-22-rac, 10-chloro-6-isopropyl-2-oxo-9-(((R)-tetrahydrofuran-3-yl)oxy)-6,7-dihydro-2H-pyrido [2,1-α]isoquinoline-3-carboxylic acid] | 5.46 | 
14 | CO[C@H]1C[C@H](Oc2cc3c(cc2Cl)-c2cc(=O)c(C(=O)O)cn2C(C(C)C)C3)C1 (mixture of isomers) [Compound I-23-rac, 10-chloro-6-isopropyl-9-((1R,3R)-3-methoxycyclobutoxy)-2-oxo-6,7-dihydro-2H-pyrido [2,1-α]isoquinoline-3-carboxylic acid] | 6.83 | 
15 | COCC1(COc2cc3c(cc2Cl)-c2cc(=O)c(C(=O)O)cn2C(C(C)C)C3)CC1 (racemic) [Compound I-24-rac, 10-chloro-6-isopropyl-9-((1-(methoxymethyl)cyclopropyl)methoxy)-2-oxo-6,7-dihydro-2H-pyrido[2,1-α]isoquinoline-3-carboxylic acid] |  | 5.78
16 | COCC1(COc2cc3c(cc2Cl)-c2cc(=O)c(C(=O)O)cn2C(C(C)C)C3)COC1 (racemic) [Compound I-25-rac, 10-chloro-6-isopropyl-9-((3-(methoxymethyl)oxetan-3-yl)methoxy)-2-oxo-6,7-dihydro-2H-pyrido[2,1-α]isoquinoline-3-carboxylic acid] | 6.97 | 
17 | COC1CC(COc2cc3c(cc2Cl)-c2cc(=O)c(C(=O)O)cn2C(C(C)C)C3)C1 (racemic) [Compound I-26-rac, 10-chloro-6-isopropyl-9-((3-methoxycyclobutyl)methoxy)-2-oxo-6,7-dihydro-2H-pyrido[2,1-α]isoquinoline-3-carboxylic acid] | 7.56 | 
18 | COc1cc2c(cc1O[C@@H]1CCOC1)CC(C(C)(C)C)n1cc(C(=O)O)c(=O)cc1-2 (mixture of isomers) [Compound I-28-rac, 6-(tert-butyl)-10-methoxy-2-oxo-9-(((R)-tetrahydrofuran-3-yl)oxy)-6,7-dihydro-2H-pyrido[2,1-α]isoquinoline-3-carboxylic acid] |  | 5.78
19 | COc1cc2c(cc1O[C@H]1C[C@H](OC)C1)CC(C(C)(C)C)n1cc(C(=O)O)c(=O)cc1-2 (mixture of isomers) [Compound I-29-rac, 6-(tert-butyl)-10-methoxy-9-((1R,3R)-3-methoxycyclobutoxy)-2-oxo-6,7-dihydro-2H-pyrido[2,1-α]isoquinoline-3-carboxylic acid] | 6.45 | 
20 | COCC1(COc2cc3c(cc2OC)-c2cc(=O)c(C(=O)O)cn2C(C(C)(C)C)C3)CC1 (racemic) [Compound I-30-rac, 6-(tert-butyl)-10-methoxy-9-((1-(methoxymethyl)cyclopropyl)methoxy)-2-oxo-6,7-dihydro-2H-pyrido[2,1-α]isoquinoline-3-carboxylic acid] |  | 6.74
21 | COCC1(COc2cc3c(cc2OC)-c2cc(=O)c(C(=O)O)cn2C(C(C)(C)C)C3)COC1 (racemic) [Compound I-31-rac, 6-(tert-butyl)-10-methoxy-9-((3-(methoxymethyl)oxetan-3-yl)methoxy)-2-oxo-6,7-dihydro-2H-pyrido[2,1-α]isoquinoline-3-carboxylic acid] | 5.98 | 
22 | COc1cc2c(cc1OCC1CC(OC)C1)CC(C(C)(C)C)n1cc(C(=O)O)c(=O)cc1-2 (racemic) [Compound I-32-rac, 6-(tert-butyl)-10-methoxy-9-((3-methoxycyclobutyl)methoxy)-2-oxo-6,7-dihydro-2H-pyrido[2,1-α]isoquinoline-3-carboxylic acid] | 7.31 | 
23 | COCC(C)(C)C1Cc2cc(O[C@@H]3CCOC3)c(OC)cc2-c2cc(=O)c(C(=O)O)cn21 (mixture of isomers) [Compound I-52-rac, 10-methoxy-6-(1-methoxy-2-methylpropan-2-yl)-2-oxo-9-(((R)-tetrahydrofuran-3-yl)oxy)-6,7-dihydro-2H-pyrido[2,1-α]isoquinoline-3-carboxylic acid] | 7.57 | 
24 | COCC(C)(C)C1Cc2cc(O[C@H]3C[C@H](OC)C3)c(OC)cc2-c2cc(=O)c(C(=O)O)cn21 (mixture of isomers) [Compound I-53-rac, 10-methoxy-6-(1-methoxy-2-methylpropan-2-yl)-9-((1R,3R)-3-methoxycyclobutoxy)-2-oxo-6,7-dihydro-2H-pyrido[2,1-α]isoquinoline-3-carboxylic acid] | 6.65 | 
25 | COCC1(COc2cc3c(cc2OC)-c2cc(=O)c(C(=O)O)cn2C(C(C)(C)COC)C3)CC1 (racemic) [Compound I-54-rac, 10-methoxy-6-(1-methoxy-2-methylpropan-2-yl)-9-((1-(methoxymethyl)cyclopropyl)methoxy)-2-oxo-6,7-dihydro-2H-pyrido[2,1-α]isoquinoline-3-carboxylic acid] | 5.34 | 
26 | COCC1(COc2cc3c(cc2OC)-c2cc(=O)c(C(=O)O)cn2C(C(C)(C)COC)C3)COC1 (racemic) [Compound I-55-rac, 10-methoxy-6-(1-methoxy-2-methylpropan-2-yl)-9-((3-(methoxymethyl)oxetan-3-yl)methoxy)-2-oxo-6,7-dihydro-2H-pyrido[2,1-α]isoquinoline-3-carboxylic acid] | 7.23 | 
27 | COCC(C)(C)C1Cc2cc(OCC3CC(OC)C3)c(OC)cc2-c2cc(=O)c(C(=O)O)cn21 (racemic) [Compound I-56-rac, 10-methoxy-6-(1-methoxy-2-methylpropan-2-yl)-9-((3-methoxycyclobutyl)methoxy)-2-oxo-6,7-dihydro-2H-pyrido[2,1-α]isoquinoline-3-carboxylic acid] | 5.95 | 
28 | COCCC#Cc1cc2c(cc1OC)-c1cc(=O)c(C(=O)O)cn1[C@H](C(C)C)C2 [Compound I-12, (S)-6-isopropyl-10-methoxy-9-(4-methoxybut-1-yn-1-yl)-2-oxo-6,7-dihydro-2H-pyrido [2,1-α]isoquinoline-3-carboxylic acid] | 3.83 | 
